We go through 2 compounds from patent US20120270935A1, “FORMULATIONS” (priority 2009, published 2012).

The subject of one experiment is S. mutans ATCC 25175. Briefly: MBC assay. The format is cell-based, Streptococcus mutans. As to conditions: Wilkins-Chalgren broth pH 7 (±0.2). The source says:
(a) staphylococci. The Staphylococcus aureus strain used was ATCC 29213. S. aureus and other staphylococci are common causes of a wide range of skin, skin structure and wound infections; S. aureus is also known to exacerbate eczema. The ATCC 29213 strain is known to be susceptible to beta-lactam antibiotics such as methicillin. The Staphylococcus epidermidis strain used was NCTC 11047. Staph. epidermidis forms part of the resident flora of skin and is an opportunistic pathogen which can cause biofilms to grow for instance on plastic surgical implants such as catheters. Unless otherwise stated, the staphylococci were cultured and maintained on Mueller-Hinton Medium (agar and broth) at pH 7.2; cultures were incubated aerobically at 37° C. for 19-20 hours, at pH 7 (±0.2). (b) C. striatum NCTC 764. Corynebacterium striatum is closely related to organisms (aerobic diphtheroids of the genus Corynebacterium) that cause body odour. It was cultured and maintained on Mueller-Hinton medium (agar and broth). All cultures were incubated aerobically at 37° C. for 72 hours, at pH 7 (±0.2). (c) streptococci. The strains tested were S. mutans ATCC 25175 and S. pyogenes ATCC 12344. S. mutans is a Gram-positive, microaerophilic bacterium which plays a significant role in dental caries and in infective endocarditis. Streptococcus pyogenes is associated with skin, soft tissue, burn and wound infections. […]

The test system of experiment [1] is P. acnes NCTC 737. Put plainly: Disc diffusion assay (DDA). The format is cell-based, Propionibacterium acnes. As to conditions: 200 μg compound per disc, DMSO. The procedure: The first test micro-organism used was Propionibacterium acnes NCTC 737. This is a propionibacterial strain and is the type strain of the […]; it is fully susceptible to antibiotics.
The propionibacteria were cultured and maintained on Wilkins-Chalgren Anaerobe Medium (agar and broth) at pH 6.0; all cultures were incubated anaerobically at 37° C. for 72 hours.
This is an internationally recognised standard method for qualitatively assessing the antimicrobial activity of a compound.
(§1) A sterile paper disc was impregnated with a sample of the test compound in a suitable solvent and 30 minutes allowed for the solvents to evaporate (where possible). The disc was then placed on an agar plate onto which the test micro-organism had been inoculated. The plate was then incubated under the conditions described above, following which it was examined visually for signs of microbial growth. If the test compound had antimicrobial activity, a circular zone of no growth would be obtained around the disc. The diameter of this zone of “inhibition” was measured using a ProtoCOL™ automated zone sizer (Synbiosis, Cambridge, UK). In general, a greater diameter and/or area of the zone of inhibition indicates a greater antimicrobial activity in the relevant test compound, although other factors such as test compound mobility through the agar gel may also influence the result.
DDA assays, as described above, were carried out using as the test formulation the gel prepared in Example 2B above. Also tested was the Example 2B gel minus the Klucel™ thickener, which was also subjected to MIC and MBC assays. For the DDAs, which were performed in triplicate, 100 μl of the relevant formulation was loaded onto each disc, and zones of inhibition were recorded after 3 days' anaerobic incubation at 37° C. The MIC and MBC tests were performed in duplicate and the results recorded after 3 days and 7 days respectively, post-subculture onto drug-free medium. […]
For orientation: In agar diffusion tests the substance spreads into inoculated agar from a disc or well.

The test system of the next experiment is C. striatum NCTC 764. Briefly: MBC assay. As to conditions: triplicate. The format is cell-based, Corynebacterium striatum. The text has this:
(a) staphylococci. The Staphylococcus aureus strain used was ATCC 29213. S. aureus and other staphylococci are common causes of a wide range of skin, skin structure and wound infections; S. aureus is also known to exacerbate eczema. The ATCC 29213 strain is known to be susceptible to beta-lactam antibiotics such as methicillin. The Staphylococcus epidermidis strain used was NCTC 11047. Staph. epidermidis forms part of the resident flora of skin and is an opportunistic pathogen which can cause biofilms to grow for instance on plastic surgical implants such as catheters. Unless otherwise stated, the staphylococci were cultured and maintained on Mueller-Hinton Medium (agar and broth) at pH 7.2; cultures were incubated aerobically at 37° C. for 19-20 hours, at pH 7 (±0.2). (b) C. striatum NCTC 764. Corynebacterium striatum is closely related to organisms (aerobic diphtheroids of the genus Corynebacterium) that cause body odour. It was cultured and maintained on Mueller-Hinton medium (agar and broth). All cultures were incubated aerobically at 37° C. for 72 hours, at pH 7 (±0.2). (c) streptococci. The strains tested were S. mutans ATCC 25175 and S. pyogenes ATCC 12344. S. mutans is a Gram-positive, microaerophilic bacterium which plays a significant role in dental caries and in infective endocarditis. Streptococcus pyogenes is associated with skin, soft tissue, burn and wound infections. S. mutans was cultured and maintained on Wilkins-Chalgren Anaerobe medium+1 g/L glucose (agar and broth); it was incubated in air at 37° C. for 48 hours, at pH 7 (±0.2) with 5% carbon dioxide. S. pyogenes was cultured and maintained on Mueller-Hinton medium (broth and agar) and was incubated under the same conditions as S. mutans.
This assay, normally carried out after an MIC assay, determines the minimum concentration of a compound that is lethal to the micro-organism being tested.
These samples were then individually sub-cultured on antibiotic-free agar medium, under the incubation conditions described above. Following incubation they were examined visually for microbial growth. […]

For experiment [2], the system named is P. acnes NCTC 737. Briefly: Supplemented disc diffusion assay (lipid or salt). Type of experiment: cell-based, Propionibacterium acnes. Particulars: 200 μg compound per disc; for zone of inhibition at 200 µg/disc: Cutibacterium acnes, NCTC737. As for the experimental part: as §1
The DDA test may be carried out using an agar gel supplemented with lipid and/or salt to simulate some of the major components present in human skin and to assess whether these substances might affect the antimicrobial activity observed for the test compound. Performance under these conditions can provide a more reliable indication of activity on topical application. […]
The compounds copper (II) usnate (Just for Today Ltd), sodium usnate (Yick-Vic Chemicals) and usnic acid (Sigma-Aldrich) were tested against P. acnes NCTC 737, using MIC, MBC and DDA assays as described above. For copper usnate and usnic acid, supplemented DDA assays were also carried out. DMSO was used as the solvent for all three test compounds. For the DDAs, 200 μg of the relevant test compound was loaded onto each disc. The MIC and MBC assays were conducted in triplicate, as were the DDAs for copper usnate.

Structures are written as SMILES. Values after ≈ are worked out from the molar mass of the structure shown. Read-outs that look alike come from different tables or passages of the source.

`CC(=O)c1c([O-])c(C)c([O-])c2c1OC1=CC(=O)C(C(C)=O)C(=O)C12C.[Cu+2]` (stereo not shown) [Copper usnate, copper (II) usnate]: the MBC (as a rule, the lowest tested concentration that kills the bacteria rather than only halting them) in the experiment with S. mutans ATCC 25175 amounted to 31.25 µg/mL; in the experiment on C. striatum NCTC 764, 62.5 µg/mL. Also, the “DDA zone diameter, unsupplemented medium” value with P. acnes NCTC 737 [1] was 46.7 ± 0.4 mm. In addition, the “DDA zone diameter, +1% NaCl” value in the experiment on P. acnes NCTC 737 [2] (medium +1% NaCl) is 42.9 ± 0.4 mm. Further, in the experiment on P. acnes NCTC 737 [2] (medium +1% triolein), the “DDA zone diameter, +1% triolein” value was 27.4 ± 1.5 mm.

Consider `CC(=O)c1c(O)c(C)c(O)c2c1OC1=CC(=O)C(C(C)=O)C(=O)C12C` (stereo not shown) [Usnic acid, 2,6-diacetyl-7,9-dihydroxy-8,9b-dimethyl-1,3(2H,9bh)-dibenzofurandione], for which the MBC in the experiment on S. mutans ATCC 25175 (Streptococcus mutans, ATCC25175, read-out: MBC) came to 125 µg/mL (≈ 363 µM); with C. striatum NCTC 764 (Corynebacterium striatum, NCTC764, read-out: MBC), 62.5 µg/mL (≈ 182 µM). Further, the zone of inhibition at 200 µg/disc in the experiment on P. acnes NCTC 737 [1] (Cutibacterium acnes, NCTC737, read-out: DDA zone diameter, unsupplemented medium) was determined as 23.9 mm; in the experiment with P. acnes NCTC 737 [2] (medium +1% NaCl, read-out: DDA zone diameter, +1% NaCl) it was 29.8 mm; with P. acnes NCTC 737 [2] (medium +1% triolein, read-out: DDA zone diameter, +1% triolein), 10.9 mm.
